{"source": "patent EP4603099A1", "about": "(priority 2022, dated 2024)", "key": {"[1]": {"system": "IAV (H1N1, seasonal isolated strain in 2019)", "assay_type": "cell-based, influenza A virus", "settings": "human lung explant, 10 µM TFMT; compared with untreated sample"}, "IAV-GFP SC35M strain": {"system": "IAV-GFP SC35M strain", "assay_type": "cell-based, influenza A virus"}, "human Mtr1 [2]": {"biological_target": "T1, human Mtr1 (Homo sapiens, UniProt Q8N1G2)", "T1 sequence (Q8N1G2 1-835)": "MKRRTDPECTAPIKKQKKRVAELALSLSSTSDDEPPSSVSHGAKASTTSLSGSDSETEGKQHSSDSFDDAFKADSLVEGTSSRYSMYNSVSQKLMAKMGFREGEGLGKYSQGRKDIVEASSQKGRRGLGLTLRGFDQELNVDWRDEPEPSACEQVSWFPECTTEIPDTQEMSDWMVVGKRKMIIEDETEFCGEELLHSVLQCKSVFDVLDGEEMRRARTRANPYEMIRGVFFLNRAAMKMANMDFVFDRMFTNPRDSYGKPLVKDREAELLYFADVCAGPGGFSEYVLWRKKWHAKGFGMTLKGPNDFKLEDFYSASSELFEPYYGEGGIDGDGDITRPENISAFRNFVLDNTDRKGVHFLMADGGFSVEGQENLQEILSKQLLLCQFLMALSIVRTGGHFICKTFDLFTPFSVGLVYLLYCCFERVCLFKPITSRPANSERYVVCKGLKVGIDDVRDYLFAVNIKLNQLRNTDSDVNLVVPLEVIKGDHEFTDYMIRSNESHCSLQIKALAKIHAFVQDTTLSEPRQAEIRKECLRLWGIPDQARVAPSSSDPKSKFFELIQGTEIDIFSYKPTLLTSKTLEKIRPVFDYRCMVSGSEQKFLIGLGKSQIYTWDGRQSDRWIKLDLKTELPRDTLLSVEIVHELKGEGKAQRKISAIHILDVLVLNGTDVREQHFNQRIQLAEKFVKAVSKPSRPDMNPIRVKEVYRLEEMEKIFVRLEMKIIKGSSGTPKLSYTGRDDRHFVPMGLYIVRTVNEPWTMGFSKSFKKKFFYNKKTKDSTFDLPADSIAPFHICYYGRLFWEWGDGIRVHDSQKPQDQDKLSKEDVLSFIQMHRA", "assay": "thermal shift assay using SYPRO Orange", "settings": "ribavirin as control"}, "[3]": {"assay": "in vivo toxicity in mouse, nasal cavity inoculation, change in body weight", "settings": "2 mg/kg intranasally on day 0 and day 1, C57BL/6 mice", "experimental": "Next, the in vivo toxicity in the mouse was evaluated by carrying out nasal cavity inoculation once a day for two days.\nTFMT or tubercidin at 2 mg/kg was intranasally administered to C57BL/6 mice on the 0th day of infection and the 1st day of infection (indicated by arrows in the figure)."}, "IBV": {"system": "IBV", "assay": "qRT-PCR analysis of IBV RNA in infected A549 cells", "assay_type": "cell-based, influenza B virus", "experimental": "(§1) The cells were recovered with TRIzol (Invitrogen, 15596), and RNA was extracted according to the manufacturer's protocol. The cDNA was purified using a High-Capacity cDNA Reverse Transcription Kit (Applied Biosystems, 43688). Quantitative reverse transcription polymerase chain reaction (qRT-PCR) was carried out using a Fast SYBR Green Master Mix (Applied Biosystems, 4385614) or a TaqMan Fast Advanced Master Mix (Applied Biosystems, 4444558)."}, "human Mtr1 [4]": {"biological_target": "T1, human Mtr1", "assay": "methyltransferase (MTase) activity assay", "settings": "0.8 µM human MTr1, cap0 RNA, SAM[3H], 37°C overnight", "procedure": "The synthesized RNA, 3'-O-Me-m7GpppGpG (pN27), was used in a methyltransferase activity assay of human MT r1.\nThe reaction sample was purified using a mini quick oligo column (Roche, 11814397001), and free SAM [3H] was removed. The purified sample was diluted with ULTIMA GOLD (PerkinElmer, 6013329), and the methyltransferase activity was measured in terms of the number of disintegrations per minute (DPM) by using a scintillation counter LS6500 (Beckman Coulter)."}, "HAZV [5]": {"system": "HAZV", "assay_type": "cell-based, Hazara virus"}, "STBV": {"system": "STBV", "assay": "qRT-PCR analysis of STBV RNA in infected A549 cells", "assay_type": "cell-based, Soft tick bunya virus", "settings": "A549, m.o.i. 0.1, 24 hours", "experimental": "as §1"}, "IFN-β RNA": {"system": "IFN-β RNA", "assay": "qRT-PCR analysis of IFN-β RNA and other host RNAs in A549 cells", "assay_type": "cell-based, human", "settings": "A549 infected or not with IAV PR8 (m.o.i. 1), 10 µM TFMT", "experimental": "as §1\n1 was analyzed in the presence or absence of 10 µM TFMT.\nEach RNA indicated in the figure at the indicated moment at the m.o.i. of 1, in A549 cells which had been infected or not infected with the IAV PR8 strain in the presence or absence of 10 µM TFMT, was analyzed."}, "HAZV [6]": {"system": "HAZV", "assay_type": "cell-based, Hazara virus", "remark": "listed apart in the source"}, "IAV PR8 strain [7]": {"system": "IAV PR8 strain"}, "IAV PR8 strain [8]": {"system": "IAV PR8 strain", "assay_type": "cell-based, influenza A virus"}, "IAV WSN": {"system": "IAV WSN", "assay": "mouse in vivo IAV infection model, qRT-PCR of IAV RNA in lung tissue", "parameters": "species or system C57BL/6 mice", "settings": "2 mg/kg intranasally on day 0 and day 1; 2 days after infection, 5 × 10^3 PFU", "experimental": "As shown in the figure, the IAV WSN and TFMT were introduced into the nasal cavity. TFMT was added on the 0th day of the IAV WSN infection and the 1st day of the IAV WSN infection.\nqRT-PCR analysis (5 × 10^3 PFU) of IAV RNA in the lung tissue of the IAV-infected C57BL/6 mice on the 2nd day was carried out. TFMT of 2 mg/kg was intranasally administered on the 0th day of infection and the 1st day of infection. […] (*p < 0.05, **p < 0.01)."}, "[9]": {"settings": "NHBE cells, m.o.i. 1, 24 hours, […]"}}, "note": "“Also recorded” adds a separate entry of the source."}
{"molecule": "Nc1ncnc2c1c(C(F)(F)F)cn2[C@@H]1O[C@H](CO)[C@@H](O)[C@H]1O", "note": "[TFMT, trifluoromethyl tubercidin]", "values": [{"measurement": "virus titer, second figure printed in the same sentence ('and was 100 to 1,000')", "setting": "[1]", "result": "100 to 1,000"}]}
{"molecule": "Nc1ncnc2c1ccn2[C@@H]1O[C@H](CO)[C@@H](O)[C@H]1O", "note": "[tubercidin]", "values": [{"measurement": "anti-IAV activity, rank among 12 commercially available compounds (GFP level)", "setting": "IAV-GFP SC35M strain", "result": "identified as the most effective compound"}, {"measurement": "inhibition of IAV-GFP (GFP level), dose dependence", "setting": "IAV-GFP SC35M strain", "result": "the inhibition depended on the dose at 0.1 to 100 µM"}, {"measurement": "binding to recombinant MTr1 (thermal shift)", "setting": "human Mtr1 [2]", "result": "directly binds to the recombinant MTr1"}, {"measurement": "change in body weight", "setting": "[3]", "result": "caused a significant body weight loss"}, {"measurement": "effect on IBV infection", "setting": "IBV; A549, compound added 3 hours before infection (FIG. 19(d))", "result": "had an effect on the IBV infectious disease"}, {"measurement": "toxicity (WST-8)", "setting": "A549 cells; A549 infected with IAV-GFP, 19 hours, tubercidin 0.1 to 100 µM", "result": "the toxicity was slight"}, {"measurement": "MTase activity of the recombinant MTr1 protein", "setting": "human Mtr1 [4]", "result": "inhibits the MTase activity of the recombinant MTr1 protein in a dosage-dependent manner"}]}
{"molecule": "trifluoromethyl tubercidin [TFMT]", "values": [{"measurement": "IAV replication (GFP level), time of addition", "setting": "IAV-GFP SC35M strain", "result": "significantly inhibited IAV replication; also recorded: the effect was reduced or could not be confirmed"}, {"measurement": "inhibition at the lowest concentration, secondary screening step 3", "setting": "IAV-GFP SC35M strain", "result": "identified as the most effective compound"}, {"measurement": "synergistic effect with amantadine (GFP relative fluorescence units, combination index)", "setting": "IAV-GFP SC35M strain; combination of TFMT and amantadine, […]", "result": "exhibited a synergistic effect"}, {"measurement": "synergistic effect with BXM (GFP relative fluorescence units, combination index)", "setting": "IAV-GFP SC35M strain; combined treatment of TFMT and BXM, […]", "result": "a strong synergistic effect was observed"}, {"measurement": "IC50", "setting": "IAV-GFP SC35M strain; read-out: IC50 for IAV infection", "result": 300, "unit": "nM"}, {"measurement": "HAZV replication (HAZV RNA, qRT-PCR)", "setting": "HAZV [5]", "result": "did not inhibit HAZV replication"}, {"measurement": "antiviral activity against STBV (virus RNA, qRT-PCR)", "setting": "STBV", "result": "does not exhibit an antiviral activity"}, {"measurement": "induction of IFN-β or antiviral ISG (qRT-PCR)", "setting": "IFN-β RNA", "result": "did not induce IFN-β or antiviral ISG"}, {"measurement": "antiviral activity against HAZV (virus RNA, qRT-PCR)", "setting": "HAZV [6]", "result": "does not exhibit an antiviral activity"}, {"measurement": "cell cytotoxicity in NHBE cells (histological analysis)", "setting": "IAV PR8 strain [7]", "result": "without cell cytotoxicity"}, {"measurement": "RNA level of IAV (segment 7, qRT-PCR)", "setting": "IAV PR8 strain [7]; [9]", "result": "significantly reduced in a dosage-dependent manner"}, {"measurement": "protein level of IAV (Western blot)", "setting": "IAV PR8 strain [7]; [9]", "result": "significantly reduced in a dosage-dependent manner"}, {"measurement": "IAV NP level (immunostaining)", "setting": "IAV PR8 strain [7]; NHBE cells, m.o.i. 2, 24 hours, 10 µM TFMT", "result": "significantly decreased"}, {"measurement": "change in body weight", "setting": "[3]", "result": "does not cause body weight loss or cell cytotoxicity"}, {"measurement": "antiviral activity against IBV (virus RNA, qRT-PCR)", "setting": "IBV; A549, m.o.i. 1, 24 hours", "result": "exhibits an antiviral activity"}, {"measurement": "antiviral activity against IAV (virus RNA, qRT-PCR)", "setting": "IAV PR8 strain [8]; A549, m.o.i. 1, 24 hours", "result": "exhibits an antiviral activity"}, {"measurement": "dependence of the effect on IAV replication on innate immune factors (IAV RNA segment 7)", "setting": "IAV PR8 strain [8]; A549, m.o.i. 1, 24 hours (FIG. 29)", "result": "independent of the IFIT1-dependent isolation of RNA or RIG-I/MDA5 signaling"}, {"measurement": "cell cytotoxicity of combined treatment (WST-8)", "setting": "A549 cells", "result": "without cell cytotoxicity"}, {"measurement": "in vitro toxicity (WST-8 cell survival rate assay)", "setting": "A549 cells; A549, within the effective concentration range", "result": "no significant in vitro toxicity was confirmed within the effective concentration range"}, {"measurement": "IAV NP level in the mouse lung (IAV RNA segment 5, qRT-PCR)", "setting": "IAV WSN", "result": "significantly reduced"}, {"measurement": "PB2 mRNA level in the mouse lung (IAV RNA segment 1, qRT-PCR)", "setting": "IAV WSN", "result": "significantly reduced"}, {"measurement": "MTase activity of the recombinant MTr1 protein", "setting": "human Mtr1 [4]", "result": "inhibited"}]}
